Data: patent US20230257372A1 (CHONG KUN DANG PHARMACEUTICAL CORP., priority 2020, published 2023)
Like-named read-outs stand apart in the source and are kept apart here.

How the values were obtained:
human recombinant HDAC6 = biological target: T1, human recombinant HDAC6 (Homo sapiens, UniProt Q9UBN7); test: HDAC6 enzyme activity inhibition (HDAC Fluorimetric Drug Discovery Kit); type: biochemical
T1 construct: purchased Calbiochem Inc. 382180
T1 sequence (Q9UBN7 1-1215): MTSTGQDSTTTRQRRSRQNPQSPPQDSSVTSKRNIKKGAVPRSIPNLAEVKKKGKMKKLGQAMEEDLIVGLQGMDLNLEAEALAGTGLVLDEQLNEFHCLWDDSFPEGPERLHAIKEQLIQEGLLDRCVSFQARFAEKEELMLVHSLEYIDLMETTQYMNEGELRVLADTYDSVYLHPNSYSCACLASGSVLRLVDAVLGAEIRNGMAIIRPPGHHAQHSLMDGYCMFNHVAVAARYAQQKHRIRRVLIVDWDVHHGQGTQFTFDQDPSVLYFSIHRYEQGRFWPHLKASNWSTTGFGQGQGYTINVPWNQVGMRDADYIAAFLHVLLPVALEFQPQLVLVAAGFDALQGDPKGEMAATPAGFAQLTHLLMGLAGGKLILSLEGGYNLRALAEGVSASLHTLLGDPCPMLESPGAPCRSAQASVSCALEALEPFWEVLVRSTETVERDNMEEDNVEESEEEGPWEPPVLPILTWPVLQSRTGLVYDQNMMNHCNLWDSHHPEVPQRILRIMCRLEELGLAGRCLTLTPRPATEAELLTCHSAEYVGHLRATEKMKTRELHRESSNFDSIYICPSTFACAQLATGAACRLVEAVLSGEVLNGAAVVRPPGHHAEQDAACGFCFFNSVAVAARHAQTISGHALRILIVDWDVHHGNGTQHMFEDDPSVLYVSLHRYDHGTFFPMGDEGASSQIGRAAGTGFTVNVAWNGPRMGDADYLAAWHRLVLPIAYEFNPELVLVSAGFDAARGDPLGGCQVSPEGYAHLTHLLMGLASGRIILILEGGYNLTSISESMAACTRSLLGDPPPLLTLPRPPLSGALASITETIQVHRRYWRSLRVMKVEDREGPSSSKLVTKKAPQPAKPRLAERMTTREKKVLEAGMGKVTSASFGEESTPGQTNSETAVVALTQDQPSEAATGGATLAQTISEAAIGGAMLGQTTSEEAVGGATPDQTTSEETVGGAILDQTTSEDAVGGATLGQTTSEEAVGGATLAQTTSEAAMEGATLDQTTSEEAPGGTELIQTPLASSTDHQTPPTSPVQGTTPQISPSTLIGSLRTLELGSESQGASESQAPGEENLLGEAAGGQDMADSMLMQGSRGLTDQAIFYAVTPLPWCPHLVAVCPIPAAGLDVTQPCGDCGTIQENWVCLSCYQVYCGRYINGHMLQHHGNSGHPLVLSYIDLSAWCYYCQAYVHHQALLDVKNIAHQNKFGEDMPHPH
In short: (§1)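 Fluorimetric deacetylase read-out: after 30 min with Developer II following a 60 min, 30° C reaction of recombinant enzyme ([…]) with 10 μM substrate, across five-fold serial compound dilutions.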

human recombinant HDAC1 = biological target: T2, human recombinant HDAC1 (Homo sapiens, UniProt Q13547); test: HDAC1 enzyme activity inhibition (HDAC Fluorimetric Drug Discovery Kit); type: biochemical
T2 construct: purchased Enzo Life Science, Inc. BML-SE456
In short: as §1

[1] = human recombinant HDAC6, same protocol as HDAC1
[2] = human recombinant HDAC1, Fluor de Lys substrate, 30° C. 60 minutes, read-out: HDAC1
[3] = human recombinant HDAC6, IC50 calculated with GraphPad Prism
[4] = human recombinant HDAC1, IC50 calculated with GraphPad Prism, read-out: HDAC1

T2 sequence (Q13547 whole entry): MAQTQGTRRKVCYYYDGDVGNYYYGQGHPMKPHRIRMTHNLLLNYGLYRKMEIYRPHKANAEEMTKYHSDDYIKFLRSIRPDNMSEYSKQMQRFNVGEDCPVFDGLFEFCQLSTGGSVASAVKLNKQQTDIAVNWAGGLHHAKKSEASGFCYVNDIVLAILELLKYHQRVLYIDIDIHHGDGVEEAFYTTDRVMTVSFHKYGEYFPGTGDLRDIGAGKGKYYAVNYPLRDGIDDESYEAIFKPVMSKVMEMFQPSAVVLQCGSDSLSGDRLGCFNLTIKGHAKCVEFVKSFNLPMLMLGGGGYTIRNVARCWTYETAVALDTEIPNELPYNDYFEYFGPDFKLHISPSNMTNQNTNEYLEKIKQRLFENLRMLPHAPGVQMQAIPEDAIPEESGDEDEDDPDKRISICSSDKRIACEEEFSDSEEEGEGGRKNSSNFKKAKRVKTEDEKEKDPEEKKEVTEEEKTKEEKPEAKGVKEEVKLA

Row | Compound | HDAC6 selectivity (fold) (human recombinant HDAC6; HDAC6 over HDAC1) | IC50 (human recombinant HDAC6; [1]) [nM] | IC50 (human recombinant HDAC1; [2]) [nM] | HDAC6 selectivity (fold) (human recombinant HDAC6; HDAC1 IC50 / HDAC6 IC50) | IC50 (human recombinant HDAC6; [3]) [nM] | IC50 (human recombinant HDAC1; [4]) [nM] | IC50 (human recombinant HDAC1) [nM]
1 | Fc1cc(-c2nnc(C(F)F)o2)cnc1Cn1cc(-c2cc(Cl)cc(CN3CCC3)c2)nn1 [Compound 19091, 2-(6-((4-(3(-azetidin-1-ylmethyl)-5-chlorophenyl)-1H-1,2,3-triazol-1-yl)methyl)-5-fluoropyridin-3-yl)-5-(difluoromethyl)-1,3,4-oxadiazole] | 435 | 115 | > 50000 | – | – | – | –
2 | CCCN1CCN(c2cccc(-c3cn(Cc4ccc(-c5nnc(C(F)F)o5)cc4)nn3)c2)CC1 [Compound 4369, 2-(difluoromethyl)-5-(4-((4-(3-(4-propylpiperazin-1-yl)phenyl)-1H-1,2,3-triazol-1-yl)methyl)phenyl)-1,3,4-oxadiazole] | – | – | – | 912 | 54.8 | > 50000 | –
3 | CN1C[C@@H]2C[C@H]1CN2c1cc(-c2cn(Cc3ccc(-c4nnc(C(F)F)o4)cc3)nn2)ccc1F [Compound 4429, 2-(difluoromethyl)-5-(4-((4-(4-fluoro-3-((1S,4S)-5-methyl-2,5-diazabicyclo[2.2.1]heptan-2-yl)phenyl)-1H-1,2,3-triazol-1-yl)methyl)phenyl)-1,3,4-oxadiazole] | – | – | – | 747 | 66.9 | > 50000 | –
4 | COC(=O)N1CC(c2cn(Cc3ccc(-c4nnc(C(F)F)o4)cn3)nn2)C1 [Compound 3959, Methyl 3-(1-((5-(5-(difluoromethyl)-1,3,4-oxadiazol-2-yl)pyridin-2-yl)methyl)-1H-1,2,3-triazol-4-yl)azetidin-1-carboxylate] | – | – | – | 209 | 239 | > 50000 | –
5 | CN1CCc2ccc(-c3cn(Cc4ccc(-c5nnc(C(F)F)o5)cn4)nn3)cc2C1 [Compound 4209, 2-(difluoromethyl)-5-(6-((4-(2-methyl-1,2,3,4-tetrahydroisoquinolin-7-yl)-1H-1,2,3-triazol-1-yl)methyl)pyridin-3-yl)-1,3,4-oxadiazole] | – | – | – | 1298 | 38.5 | > 50000 | –
6 | CN1C[C@@H]2C[C@H]1CN2c1cccc(-c2cn(Cc3ccc(-c4nnc(C(F)F)o4)cc3F)nn2)c1 [Compound 4318, 2-(difluoromethyl)-5-(3-fluoro-4-((4-(3-((1S,4S)-5-methyl-2,5-diazabicyclo[2.2.1]heptan-2-yl)phenyl)-1H-1,2,3-triazol-1-yl)methyl)phenyl)-1,3,4-oxadiazole] | – | – | – | 1373 | 36.4 | > 50000 | –
7 | CN1CCc2cc(-c3cn(Cc4ccc(-c5nnc(C(F)F)o5)cc4F)nn3)sc2C1 [Compound 4500, 2-(difluoromethyl)-5-(3-fluoro-4-((4-(6-methyl-4,5,6,7-tetrahydrothieno[2,3-c]pyridin-2-yl)-1H-1,2,3-triazol-1-yl)methyl)phenyl)-1,3,4-oxadiazole] | 413 | 121 | > 50000 | – | – | – | –
8 | Fc1cc(-c2nnc(C(F)F)o2)ccc1Cn1cc(-c2ccc(N3CCN(C4CCOCC4)CC3)c(F)c2)nn1 [Compound 18327, 2-(difluoromethyl)-5-(3-fluoro-4-((4-(3-fluoro-4-(4-(tetrahydro-2H-pyran-4-yl)piperazin-1-yl)phenyl)-1H-1,2,3-triazol-1-yl)methyl)phenyl)-1,3,4-oxadiazole] | 502 | 99.5 | – | – | – | – | > 50000
9 | Fc1cc(-c2nnc(C(F)F)o2)ccc1Cn1cc(-c2ccc(CN3CCC(F)(F)CC3)cc2)nn1 [Compound 4472, 2-(difluoromethyl)-5-(4-((4-(4-((4,4-difluoropiperidin-1-yl)methyl)phenyl)-1H-1,2,3-triazol-1-yl)methyl)-3-fluorophenyl)-1,3,4-oxadiazole] | – | – | – | 407 | 123 | > 50000 | –
10 | CN(C)c1cccc(-c2cn(Cc3ccc(-c4nnc(C(F)F)o4)cc3)nn2)c1 [Compound 4323, 3-(1-(4-(5-(difluoromethyl)-1,3,4-oxadiazol-2-yl)benzyl)-1H-1,2,3-triazol-4-yl)-N,N-dimethylaniline] | – | – | – | 310 | 161 | > 50000 | –
11 | CN(C)Cc1cccc(-c2cn(Cc3ncc(-c4nnc(C(F)F)o4)cc3F)nn2)c1Cl [Compound 19088, 1-(2-chloro-3-(1-((5-(5-(difluoromethyl)-1,3,4-oxadiazol-2-yl)-3-fluoropyridin-2-yl)methyl)-1H-1,2,3-triazol-4-yl)phenyl)-N,N-dimethylmethanamine] | 639 | 78.2 | > 50000 | – | – | – | –
12 | CCN1[C@H](C)CN(c2cccc(-c3cn(Cc4ccc(-c5nnc(C(F)F)o5)cc4F)nn3)c2)C[C@@H]1C [Compound 4444] | – | – | – | 1872 | 26.7 | > 50000 | –
13 | CN1CCN(c2cc(-c3cn(Cc4ccc(-c5nnc(C(F)F)o5)cn4)nn3)ccn2)CC1 [Compound 4582, 2-(difluoromethyl)-5-(6-((4-(2-(4-methylpiperazin-1-yl)pyridin-4-yl)-1H-1,2,3-triazol-1-yl)methyl)pyridin-3-yl)-1,3,4-oxadiazole] | 2283 | 21.9 | > 50000 | – | – | – | –
14 | Fc1cc(-c2nnc(C(F)F)o2)ccc1Cn1cc(-c2ccc(F)c(N3CCN(C4CCC4)CC3)c2)nn1 [Compound 4426, 2-(4-((4-(3-(4-cyclobutylpiperazin-1-yl)-4-fluorophenyl)-1H-1,2,3-triazol-1-yl)methyl)-3-fluorophenyl)-5-(difluoromethyl)-1,3,4-oxadiazole] | – | – | – | 334 | 150 | > 50000 | –
15 | CC(C)N1CCN(c2cc(-c3cn(Cc4ccc(-c5nnc(C(F)F)o5)cc4)nn3)ccc2F)CC1 [Compound 4421, 2-(difluoromethyl)-5-(4-((4-(4-fluoro-3-(4-isopropylpiperazin-1-yl)phenyl)-1H-1,2,3-triazol-1-yl)methyl)phenyl)-1,3,4-oxadiazole] | – | – | – | 202 | 247 | > 50000 | –
16 | CC(C)N1CCc2cc(-c3cn(Cc4ccc(-c5nnc(C(F)F)o5)cc4F)nn3)ccc2C1 [Compound 4360, 2-(difluoromethyl)-5-(3-fluoro-4-((4-(2-isopropyl-1,2,3,4-tetrahydroisoquinolin-6-yl)-1H-1,2,3-triazol-1-yl)methyl)phenyl)-1,3,4-oxadiazole] | – | – | – | 881 | 56.7 | > 50000 | –
17 | COC(=O)N1CCC(c2cn(Cc3ccc(-c4nnc(C(F)F)o4)cn3)nn2)CC1 [Compound 3891, Methyl4-(1-((5-(5-(difluoromethyl)-1,3,4-oxadiazol-2-yl)pyridin-2-yl)methyl)-1H-1,2,3-triazol-4-yl)piperidin-1-carboxylate] | – | – | – | 287 | 174 | > 50000 | –
18 | CN(C)CC(=O)Nc1cccc(-c2cn(Cc3ccc(-c4nnc(C(F)F)o4)cn3)nn2)c1 [Compound 4230, N-(3-(1-((5-(5-(difluoromethyl)-1,3,4-oxadiazol-2-yl)pyridin-2-yl)methyl)-1H-1,2,3-triazol-4-yl)phenyl)-2-(dimethylamino)acetamide] | – | – | – | 2173 | 23 | > 50000 | –
19 | FC(F)c1nnc(-c2ccc(Cn3cc(-c4ccc5[nH]cc(CN6CCOCC6)c5c4)nn3)cc2)o1 [Compound 4186, 4-((5-(1-(4-(5-(difluoromethyl)-1,3,4-oxadiazol-2-yl)benzyl)-1H-1,2,3-triazol-4-yl)-1H-indol-3-yl)methyl)morpholine] | – | – | – | 4464 | 11.2 | > 50000 | –
20 | CCN1CCN(c2cc(-c3cn(Cc4ccc(-c5nnc(C(F)F)o5)cc4)nn3)ccc2F)CC1 [Compound 4420, 2-(difluoromethyl)-5-(4-((4-(3-(4-ethylpiperazin-1-yl)-4-fluorophenyl)-1H-1,2,3-triazol-1-yl)methyl)phenyl)-1,3,4-oxadiazole] | – | – | – | 287 | 174 | > 50000 | –
